# From patent US8629175B2, “Functional food additives” (priority 2009, dated 2014)
# What was measured:
# [1] = acute food intake experiment in rats; assay type: in vivo
# Procedure: An acute experiment with rats has been conducted recently after complying with Swedish Ethical regulations. Seven groups of rats (n=4-5) were given an acute test dose (100-200 mg/kg) of the control vehicle (rapeseed oil) and test conjugates. Part of the results is shown here in FIG. 4.
# [2] = antioxidant (antiradical) activity using DPPH radical
# Procedure: The antioxidant (AO) activity of DAG-DHLA was determined using DPPH. radical following the published methods (Brand-Williams, W. et al. (1995). Lebensm. Wiss. U.-Technol. 28:25-30).
# Antioxidant solution in toluene (0.1 mL) was added to 3.9 mL of a 6×10^−5 mol/L toluene DPPH. solution. Absorbance was determined at 515 nm at 0 min, and every 30 min until the reaction reached a plateau. For each DAG-DHLA concentration tested, the reaction kinetics was plotted. From this graph, the percentage of DPPH. remaining at the steady state was recorded and the values transferred onto another graph showing the percentage of residual DPPH. at the steady state as a function of the molar ratio of antioxidant to DPPH..
"EC50 (Efficient concentration), amount of antioxidant necessary to decrease the initial DPPH. concentration by 50% ([2]; 6×10^−5 mol/L DPPH. in toluene, steady state, 515 nm)",SMILES,"acute food intake ([1]; acute test dose (100-200 mg/kg), compared with the DAG-DHLA result)","antioxidant activity (in words) ([2]; DPPH. in toluene, in parallel, compared with DAG-DHLA)","acute food intake ([1]; acute test dose 200 mg/kg, after 4 hours, compared to vehicle (rapeseed oil), FIG. 4)","Number of reduced DPPH. (1/EC100), DPPH. moles reduced by one mole of antioxidant ([2]; DPPH. in toluene)","Kinetic behaviour ([2]; reaction with DPPH. in toluene, absorbance at 515 nm)"
,"CCCCCCCC/C=C\CCCCCCCC(=O)OCC(COC(=O)CCCCCCC/C=C\CCCCCCCC)OC(=O)CCCCC1CCSS1 (stereo not drawn) [compound 1, 1,3-Dioleoyl-2-lipoyl-sn-glycerol]",Rather similar result,negligible antioxidant activity,,,
0.21 (mol/L) AO/(mol/L) DPPH.,"CCCCCCCC/C=C\CCCCCCCC(=O)OCC(COC(=O)CCCCCCC/C=C\CCCCCCCC)OC(=O)CCCCC(S)CCS (stereo not drawn) [compound 2, 1,3-Dioleoyl-2-dihydrolipoate-sn-glycerol]",,,seems to block food intake,2.34,Rapid
